Experiments:
PRMT5 = target: T1, PRMT5 (Homo sapiens, UniProt O14744); assay: Global proteomics of MCF7 cells, PRMT5 level; type: cell-based; conditions: 25 nM, 4 h, versus DMSO
T1 construct: we performed a global quantitative proteomic analysis of MCF7 cells using mass spectrometry; endogenous in cells; host or cells: MCF7
Method: (§1) Sample preparation for global proteomics analysis. Sample preparation is similar to the previous report (Ma et al. “Strategy Based on Deglycosylation, Multiprotease, and Hydrophilic Interaction Chromatography for Large-Scale Profiling of Protein Methylation” Anal. Chem. 2017, 89 (23), 12909-12917). Briefly, treated MCF7 cells were harvested by washing with PBS buffer (Gibco, pH 7.4) and lysed in RIPA buffer supplemented with protease inhibitors for 20 min, then protein concentration was determined using a BCA Protein Assay Kit (Thermo Pierce, Rockford, IL) per manufacturer instructions. […] The concentrations of the peptide mixture were measured by peptide assay (Thermo Fisher Scientific). […]
(§2) LC-MS/MS data acquisition. Samples were analyzed on an Orbitrap Fusion Lumos Tribrid mass spectrometer (Thermo Fisher Scientific) coupled to a Dionex UltiMate 3000 UPLC system. […]
(§3) Data analysis. Protein identification and quantification by MaxQuant (version 1.5.3.8) based database searching, using the integrated Andromeda search engine with FDR <1% at peptide and protein levels. […] For label-free protein quantification (LFQ), the MaxQuant LFQ algorithm was used to quantitate the MS signals, and the proteins' intensities were represented in LFQintesnit (Schaab et al. “Analysis of High Accuracy, Quantitative Proteomics Data in the MaxQB Database” Mol. Cell. Proteomics 2012, 11 (3), M111.014068). […]

MCF7 cells = assay: Global quantitative proteomic analysis of MCF7 cells by mass spectrometry; type: cell-based, Homo sapiens; conditions: 25 nM, 4 h, two-fold cutoff, p-value ≤0.05, 3491 proteins quantified
Method: as §1, §2, §3

BAF155 me2a [1] = assay: BAF155 me2a level in MDA-MB-231 cells, western blot; type: cell-based; conditions: 0.5 μM, after 48 h
Source text: (§4) FIGS. 7A-7F. […] Cell lysates were collected and CARM1, methyl-BAF155, total BAF155, methyl-PABP1, and total PABP1 levels were detected by Western blot. […] Cell lysates were collected and CARM1, methyl-BAF155, total BAF155 levels were detected by Western blot. […] Cell proliferation rate normalized to day 0 was plotted. […] Migrated cells were stained with 1% crystal violet and the percentage of migrated cells were plotted. Data mean±s.d. ***. P≤0.001.
(§5) Western Blot Assay. Cells were harvested and washed with Dulbecco's phosphate-buffered saline (PBS), then lysed with 1×RIPA lysis buffer (50 mM Tris pH 7.5, 150 mM NaCl, 1% NP-40, 0.5% sodium deoxycholate, and 0.1% sodium dodecyl sulfate) supplemented with 1 mM phenylmethylsulfonyl fluoride, 10 μg/mL aprotinin, 1 μM leupeptin, and 10 μg/mL pepstatin on ice for 20 min. The supernatant was collected after spinning down at 15000 RPM at 4 degrees Celsius for 10 min. The concentration of whole lysates was quantified using a Bradford assay. 50-75 μg of cell lysates was boiled in 4× Laemmli Loading Dye and boiled at 100 degrees Celsius for 10 min. 25 μg were run in 8% SDS-PAGE gels and transferred to nitrocellulose membranes. Blots were blocked in 5% skim milk in PBST [PBS and 0.1% Tween 20] for 45 min, then incubated with primary antibodies at 4 degrees Celsius overnight. […]

MCF10A cells = assay: Cell proliferation assay, MCF10A cells; type: cell-based, human; conditions: 0.5 μM
BAF155 me2a [2] = assay: BAF155 me2a level in BT474 cells, western blot; type: cell-based; conditions: 0.5 μM, after 48 h
Source text: as §4, §5

T1 sequence (O14744 whole entry): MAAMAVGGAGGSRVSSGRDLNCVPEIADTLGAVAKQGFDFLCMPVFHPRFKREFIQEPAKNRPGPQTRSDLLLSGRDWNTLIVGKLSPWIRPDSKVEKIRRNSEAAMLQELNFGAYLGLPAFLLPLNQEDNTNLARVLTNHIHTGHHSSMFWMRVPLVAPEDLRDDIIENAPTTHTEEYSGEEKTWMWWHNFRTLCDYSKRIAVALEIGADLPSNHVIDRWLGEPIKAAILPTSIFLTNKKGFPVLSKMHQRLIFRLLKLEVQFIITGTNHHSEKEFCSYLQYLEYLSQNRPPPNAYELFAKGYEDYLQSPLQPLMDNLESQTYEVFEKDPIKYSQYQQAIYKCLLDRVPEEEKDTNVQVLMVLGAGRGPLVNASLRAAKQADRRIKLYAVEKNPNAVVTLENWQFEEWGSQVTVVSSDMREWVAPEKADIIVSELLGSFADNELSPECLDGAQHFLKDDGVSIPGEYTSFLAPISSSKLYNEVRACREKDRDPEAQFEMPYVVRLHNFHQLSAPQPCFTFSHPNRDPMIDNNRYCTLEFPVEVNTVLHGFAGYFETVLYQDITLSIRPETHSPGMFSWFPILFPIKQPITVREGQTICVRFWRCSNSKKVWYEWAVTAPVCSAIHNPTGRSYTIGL

CNCCN1CCC(c2cc(CN(C)C(=O)c3cccc(Oc4ccc(OCC(=O)N5CCC(CN6CCC(CN7CCN(CC(=O)N[C@H](C(=O)N8C[C@H](O)C[C@H]8C(=O)N[C@@H](C)c8ccc(-c9scnc9C)cc8)C(C)(C)C)CC7)CC6)CC5)cc4)c3)ccn2)CC1 [Compound 3b, (2S,4R)-1-((S)-3,3-dimethyl-2-(2-(4-((1-((1-(2-(4-(3-(methyl((2-(1-(2-(methylamino)ethyl)piperidin-4-yl)pyridin-4-yl)methyl)carbamoyl)phenoxy)phenoxy)acetyl)piperidin-4-yl)methyl)piperidin-4-yl)methyl)piperazin-1-yl)acetamido)butanoyl)-4-hydroxy-N—((S)-1-(4-(4-methylthiazol-5-yl)phenyl)ethyl)pyrrolidine-2-carboxamide]
PRMT5 protein level in proteomics (PRMT5): not significantly changed | Number of significantly changed proteins compared to the DMSO group (MCF7 cells): 25 | BAF155 me2a level (BAF155 me2a [1]): decrease of BAF155 me2a level was observed | Cell proliferation (MCF10A cells): not to inhibit cell proliferation | BAF155 me2a level (BAF155 me2a [2]): decrease of BAF155 me2a level was observed
